# In patent US6967079B2, “Pyrimidine derivatives for labeled binding partners” (ISIS Pharmaceuticals, Inc., priority 1993, dated 2005):
# Experiment: Fluorescence excitation and emission wavelengths
# Assay type: physicochemical
# Design: unit not given here
# Settings: deoxyriboside compound
substance,measurement,value
2′-Deoxphenothiazine [phenothiazine deoxyriboside],emission wavelength (EM),492
